These results are taken from patent publication US11634396B2 (priority 2021, dated 2023).

In test [1] the target is human mOR (Homo sapiens (Human), UniProt P35372). The test can be described thus: cell-based.
Test [2] deals with kOR (OPRK1) (Homo sapiens (Human), UniProt P41145). As to the kind of experiment: KOR β-Arrestin antagonist assay (Tango OPRK1-bla U2OS cells). Format: cell-based. The source says: KOR β-Arrestin Agonist and Antagonist assays were preformed using the Tango™ OPRK1-bla U2OS cells from Invitrogen and purchased from ThermoFisher, catalog number K1576.
The target of test [3] is human dOR (Homo sapiens (Human), UniProt P41143). The test can be described thus: cell-based.
The mark [4] stands for this setting: CHO Tag-lite human mOR stable cell line, forskolin 4 μM and DAMGO at EC90, read-out: mOR cAMP Antagonist Assay IC50.
Setting [5] is: dOR cAMP Agonist Assay EC50, CHO Tag-lite human dOR stable cell line, forskolin.

Where two headings read alike, the source gives them in different places. Bounds are passed on as bounds.

Sequence of kOR (OPRK1) (P41145 whole entry): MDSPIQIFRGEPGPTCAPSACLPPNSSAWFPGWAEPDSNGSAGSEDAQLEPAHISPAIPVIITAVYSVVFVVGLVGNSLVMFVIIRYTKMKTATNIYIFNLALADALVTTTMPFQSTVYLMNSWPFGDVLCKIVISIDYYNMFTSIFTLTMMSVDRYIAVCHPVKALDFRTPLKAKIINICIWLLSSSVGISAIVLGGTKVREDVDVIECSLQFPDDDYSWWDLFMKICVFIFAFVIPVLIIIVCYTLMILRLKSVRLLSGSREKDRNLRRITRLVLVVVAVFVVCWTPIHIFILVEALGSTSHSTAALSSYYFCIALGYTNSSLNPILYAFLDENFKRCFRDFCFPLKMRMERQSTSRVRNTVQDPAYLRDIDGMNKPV
Sequence of human mOR (P35372 whole entry): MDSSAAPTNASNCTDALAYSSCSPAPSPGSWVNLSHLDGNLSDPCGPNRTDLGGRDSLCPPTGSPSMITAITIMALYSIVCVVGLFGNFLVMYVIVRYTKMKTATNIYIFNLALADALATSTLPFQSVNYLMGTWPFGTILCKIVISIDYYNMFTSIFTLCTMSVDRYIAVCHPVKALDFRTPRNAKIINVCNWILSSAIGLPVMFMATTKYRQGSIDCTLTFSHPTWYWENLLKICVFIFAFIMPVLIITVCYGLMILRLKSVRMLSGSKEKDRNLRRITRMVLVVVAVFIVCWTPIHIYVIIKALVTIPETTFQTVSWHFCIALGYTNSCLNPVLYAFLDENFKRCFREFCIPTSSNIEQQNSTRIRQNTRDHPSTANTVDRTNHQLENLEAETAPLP
Sequence of human dOR (P41143 whole entry): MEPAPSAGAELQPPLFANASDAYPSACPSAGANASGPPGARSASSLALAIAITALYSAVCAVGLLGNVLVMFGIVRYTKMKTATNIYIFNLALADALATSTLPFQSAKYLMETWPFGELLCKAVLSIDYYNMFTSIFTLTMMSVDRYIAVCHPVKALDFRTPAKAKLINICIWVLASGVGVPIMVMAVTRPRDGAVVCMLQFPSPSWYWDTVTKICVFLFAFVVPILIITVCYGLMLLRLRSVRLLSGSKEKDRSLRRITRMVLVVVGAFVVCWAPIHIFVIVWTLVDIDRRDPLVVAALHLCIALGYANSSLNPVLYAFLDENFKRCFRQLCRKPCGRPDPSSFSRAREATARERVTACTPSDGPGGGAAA

Consider `Cc1cc(C(N)=O)cc(C)c1C[C@@H](CNC(=O)C1CC1c1ncccn1)N(C)C` (stereo partly drawn) [Compound 6, 4-((2S)-2-(dimethylamino)-3-(2-(pyrimidin-2-yl)cyclopropane-1-carboxamido)propyl)-3,5-dimethylbenzamide], for which the IC50 in test [1] (setting [4]) and in test [2] was 300 to 3000 nM throughout.
Turning to `Cc1ccc([C@H](CC(=O)NC[C@H](Cc2ccc(C(N)=O)c(F)c2Cl)N(C)C)C2(C(F)(F)F)CC2)cn1` [Compound 17, 3-chloro-4-[(2S)-2-(dimethylamino)-3-[(3S)-3-(6-methylpyridin-3-yl)-3-[1-(trifluoromethyl)cyclopropyl]propanamido]propyl]-2-fluorobenzamide], the IC50 (as a rule, the concentration that gives 50% inhibition) in test [1] (setting [4]) was above 3000 nM; in test [2], below 300 nM.
As for `CN(C)[C@H](CNC(=O)C[C@H](c1cccnc1)C1(C(F)(F)F)CC1)Cc1ccc(C(N)=O)c(F)c1Cl` [Compound 18, 3-chloro-4-[(2S)-2-(dimethylamino)-3-[(3R)-3-(pyridin-3-yl)-3-[1-(trifluoromethyl)cyclopropyl]propanamido]propyl]-2-fluorobenzamide], the IC50 is above 3000 nM in test [1] and below 300 nM in test [2].
With `CN(C)[C@H](CNC(=O)CC(c1ncc(Cl)cn1)C1(C(F)(F)F)CC1)Cc1ccc(C(N)=O)c(F)c1Cl` (stereo partly drawn) [Compound 22, 3-chloro-4-[(2S)-3-[3-(5-chloropyrimidin-2-yl)-3-[1-(trifluoromethyl)cyclopropyl]propanamido]-2-(dimethylamino)propyl]-2-fluorobenzamide], the IC50 in test [1] (setting [4]) and in test [2] was below 300 nM each time.
Regarding `Cc1ncc([C@@H](CC(=O)NC[C@H](Cc2ccc(C(N)=O)cc2Cl)N(C)C)C2(C(F)(F)F)CC2)cn1` [Compound 24, 3-chloro-4-[(2S)-2-(dimethylamino)-3-[(3R)-3-(2-methylpyrimidin-5-yl)-3-[1-(trifluoromethyl)cyclopropyl]propanamido]propyl]benzamide], the IC50 in test [1] and in test [2] was below 300 nM each time.
For the compound `Cc1ncc([C@@H](CC(=O)NC[C@H](Cc2ccc(C(N)=O)cc2Cl)N(C)C)C2CC2)cn1` [Compound 25, 3-chloro-4-[(2S)-3-[(3S)-3-cyclopropyl-3-(2-methylpyrimidin-5-yl)propanamido]-2-(dimethylamino)propyl]benzamide], the IC50 in test [1] is below 300 nM; in test [2], 300 to 3000 nM.
Regarding `CN(C)[C@H](CNC(=O)C[C@H](c1cccnc1)C1(C(F)(F)F)CC1)Cc1ccc(C(N)=O)cc1Cl` [Compound 28, 3-chloro-4-((S)-2-(dimethylamino)-3-((R)-3-(pyridin-3-yl)-3-(1-(trifluoromethyl)cyclopropyl)propanamido)propyl)benzamide], the IC50 in test [1] and in test [2] was below 300 nM in each case.
Turning to `CN(C)[C@H](CNC(=O)CC(c1ccc(C(F)(F)F)nc1)C1(C(F)(F)F)CC1)Cc1ccc(C(N)=O)cc1Cl` (stereo partly drawn) [Compound 32, 3-chloro-4-[(2S)-2-(dimethylamino)-3-{3-[1-(trifluoromethyl)cyclopropyl]-3-[6-(trifluoromethyl)pyridin-3-yl]propanamido}propyl]benzamide], the IC50 in test [1] (setting [4]) and in test [2] was below 300 nM throughout.
Take `COc1ncc(C(CC(=O)NC[C@H](Cc2ccc(C(N)=O)cc2Cl)N(C)C)C2(C(F)(F)F)CC2)cn1` (stereo partly drawn) [Compound 33, 3-chloro-4-[(2S)-2-(dimethylamino)-3-[3-(2-methoxypyrimidin-5-yl)-3-[1-(trifluoromethyl)hydropropyl]propanamido]propyl]benzamide]: the IC50 in test [1] and in test [2] was below 300 nM throughout.
Take `Cc1ncc(C(CC(=O)NC[C@H](Cc2ccc(C(N)=O)cc2Cl)N(C)C)C2(C(F)(F)F)CC2)cn1` (stereo partly drawn) [Compound 34, 3-chloro-4-[(2S)-2-(dimethylamino)-3-[3-(2-methylpyrimidin-5-yl)-3-[1-(trifluoromethyl)cyclopropyl]propanamido]propyl]benzamide]: the IC50 in test [1] and in test [2] was below 300 nM each time.
Regarding `COc1ccc(C(CC(=O)NC[C@H](Cc2ccc(C(N)=O)cc2Cl)N(C)C)C2(C(F)(F)F)CC2)cn1` (stereo partly drawn) [Compound 35, 3-chloro-4-[(2S)-2-(dimethylamino)-3-[3-(6-methoxypyridin-3-yl)-3-[1-(trifluoromethyl)cyclopropyl]propanamido]propyl]benzamide], the IC50 in test [1] and in test [2] was below 300 nM throughout.
As for `CN(C)[C@H](CNC(=O)CC(c1cncc(F)c1)C1(C(F)(F)F)CC1)Cc1ccc(C(N)=O)cc1Cl` (stereo partly drawn) [Compound 36, 3-chloro-4-[(2S)-2-(dimethylamino)-3-[3-(5-fluoropyridin-3-yl)-3-[1-(trifluoromethyl)cyclopropyl]propanamido]propyl]benzamide], the IC50 in test [1] (setting [4]) and in test [2] was below 300 nM each time.
Take `CN(C)[C@H](CNC(=O)CC(c1ccc(Cl)cn1)C1(C(F)(F)F)CC1)Cc1ccc(C(N)=O)cc1Cl` (stereo partly drawn) [Compound 37, 3-chloro-4-[(2S)-3-[3-(5-chloropyridin-2-yl)-3-[1-(trifluoromethyl)cyclopropyl]propanamido]-2-(dimethylamino)propyl]benzamide]: the half-maximal inhibitory concentration (IC50) in test [1] and in test [2] was below 300 nM throughout.
Consider `CNC(=O)c1ccc(C[C@@H](CNC(=O)C[C@@H](c2ccc(Cl)cn2)C2(C(F)(F)F)CC2)N(C)C)c(C)c1` [Compound 137, 4-((S)-3-((R)-3-(5-chloropyridin-2-yl)-3-(1-(trifluoromethyl)cyclopropyl)propanamido)-2-(dimethylamino)propyl)-N,3-dimethylbenzamide], for which the IC50 in test [2] was below 300 nM.
Same read-out and setting: the figure for `CNC(=O)c1ccc(C[C@@H](CNC(=O)C[C@H](c2ccc(Cl)cn2)C2(C(F)(F)F)CC2)N(C)C)c(C)c1` [Compound 138, 4-((S)-3-((S)-3-(5-chloropyridin-2-yl)-3-(1-(trifluoromethyl)cyclopropyl)propanamido)-2-(dimethylamino)propyl)-N,3-dimethylbenzamide] is below 300 nM.
In the case of `CC(C)C[C@@H](CC(=O)NC[C@H](Cc1ccc2[nH]ncc2c1)N(C)C)c1ccccc1` [Compound 214, (S)-N-((S)-2-(dimethylamino)-3-(1H-indazol-5-yl)propyl)-5-methyl-3-phenylhexanamide], the IC50 in test [1] (setting [4]) was below 300 nM. The EC50 (commonly the concentration needed to bring the measured effect to its halfway point) in test [3] (setting [5]) is below 300 nM.
Consider `C[C@H](CC(=O)NC[C@H](Cc1ccc2[nH]ncc2c1)N(C)C)c1cccc(F)c1` [Compound 215, (R)-N-((S)-2-(dimethylamino)-3-(1H-indazol-5-yl)propyl)-3-(3-fluorophenyl)butanamide], for which the IC50 in test [1] (setting [4]) is below 300 nM. The EC50 in test [3] (setting [5]) lay within 300 to 3000 nM.
For `C[C@@H](CC(=O)NC[C@H](Cc1ccc2[nH]ncc2c1)N(C)C)c1ccccn1` [Compound 216, (S)-N-((S)-2-(dimethylamino)-3-(1H-indazol-5-yl)propyl)-3-(pyridin-2-yl)butanamide], in that order: below 300 nM and 300 to 3000 nM.
With `Cc1ccc([C@@H](C)CC(=O)NC[C@H](Cc2ccc3[nH]ncc3c2)N(C)C)cc1` [Compound 217, (S)-N-((S)-2-(dimethylamino)-3-(1H-indazol-5-yl)propyl)-3-(p-tolyl)butanamide], the IC50 in test [1] (setting [4]) is below 300 nM. The EC50 in test [3] (setting [5]) was in the range of 300 to 3000 nM.
`C[C@@H](CC(=O)NC[C@H](Cc1ccc2[nH]ncc2c1)N(C)C)c1ccc(F)cc1` [Compound 218, (S)-N-((S)-2-(dimethylamino)-3-(1H-indazol-5-yl)propyl)-3-(4-fluorophenyl)butanamide]: the IC50 in test [1] was below 300 nM. In addition, the EC50 in test [3] (setting [5]) was above 3000 nM.
Turning to `CC(C)[C@@H](CC(=O)NC[C@H](Cc1ccc2[nH]ncc2c1)N(C)C)c1ccccc1` [Compound 219, (R)-N-((S)-2-(dimethylamino)-3-(1H-indazol-5-yl)propyl)-4-methyl-3-phenylpentanamide], the IC50 in test [1] (setting [4]) was below 300 nM. In test [3] (setting [5]), the EC50 was 300 to 3000 nM.
Turning to `C[C@@H](CC(=O)NC[C@H](Cc1ccc2[nH]ncc2c1)N(C)C)c1ccc(Cl)cc1` [Compound 220, (S)-3-(4-chlorophenyl)-N-((S)-2-(dimethylamino)-3-(1H-indazol-5-yl)propyl)butanamide], in test [1], the IC50 was below 300 nM. For the same compound, in test [3] (setting [5]), the EC50 was above 3000 nM.
For `CN(C)[C@H](CNC(=O)CC(C)(C)c1ccccc1)Cc1ccc2[nH]ncc2c1` [Compound 221, (S)-N-(2-(dimethylamino)-3-(1H-indazol-5-yl)propyl)-3-methyl-3-phenylbutanamide], in that order: below 300 nM and above 3000 nM.
For `CN(C)[C@H](CNC(=O)C[C@H](c1ccccc1)C1CC1)Cc1ccc(O)cc1Cl` [Compound 263, (S)-N-((S)-3-(2-chloro-4-hydroxyphenyl)-2-(dimethylamino)propyl)-3-cyclopropyl-3-phenylpropanamide], in that order: below 300 nM and below 300 nM.
For `CC(=O)Oc1ccc(C[C@@H](CNC(=O)C[C@H](C)c2ccccc2)N(C)C)cc1Cl` [Compound 275, 2-chloro-4-((S)-2-(dimethylamino)-3-((S)-3-phenylbutanamido)propyl)phenyl acetate], in that order: below 300 nM and below 300 nM.
As for `CN1Cc2cc(O)ccc2C[C@H]1CNC(=O)C[C@H](c1ccccc1)C(C)(C)C` [Compound 323, (S)-N-(((S)-7-hydroxy-2-methyl-1,2,3,4-tetrahydroisoquinolin-3-yl)methyl)-4,4-dimethyl-3-phenylpentanamide], the IC50 in test [1] was below 300 nM. For the same compound, in test [3] (setting [5]), the EC50 is below 300 nM.
`CC(C)C[C@H](CC(=O)NC[C@H](Cc1ccc(-c2cn[nH]c2)cc1Cl)N(C)C)c1ccccc1` [Compound 326, (3R)-N-[(2S)-3-[2-chloro-4-(1H-pyrazol-4-yl)phenyl]-2-(dimethylamino)propyl]-5-methyl-3-phenylhexanamide]: the IC50 in test [1] (read-out: mOR cAMP Antagonist Assay IC50) was 300 to 3000 nM. In addition, in test [3] (read-out: dOR cAMP Agonist Assay EC50), the EC50 is above 3000 nM.
